The text below walks through data of patent US20250057890A1, “FUNCTIONAL FOOD CONTAINING BONITO-DERIVED EXTRACT FOR PREVENTING OR AMELIORATING NEUROPSYCHIATRIC DISORDERS” (MARUHACHI MURAMATSU, INC., priority 2022, published 2025).

In experiment [1] the test system is MG6 cells from mouse brain microglia. In words: Anti-inflammatory action: TNF-α production in LPS-activated MG6 cells (ELISA). The class given is cell-based. Conditions: for anti-inflammatory activity: MG6 cells, LPS, fractions or single components; for anti-inflammatory action compared to katsuobushi extract: known components of katsuobushi, each in isolation. The method, then: MG6 cells from mouse brain microglia were purchased from the RIKEN BioResource Research Center (BRC), and the anti-inflammatory action of various extracts, including from katsuobushi, were assayed (see FIG. 1). First, a 96-well plate was seeded with the MG6 cells (5×10^3 cells/well·90 μL), and a culture was started in a CO2 incubator (37° C., CO2 level 5%). Next the various extracts were added to the wells after 0.5 hours, followed by the addition of lipopolysaccharide (LPS) 1 hour after that to activate the MG6 cells and induce an inflammatory state. After 6 hours, 10 μL of culture supernatant was collected from each well, after which 10 μL of a viable cell counting reagent (WST-8) was added to each well, and absorbance at 450 nm (reference wavelength 630 nm) was measured with a plate reader after 1 hour and 2 hours.
The previously collected culture supernatant was diluted 25-fold with a buffer, and the levels of TNF-α, a type of inflammatory cytokine, produced in the culture supernatant was measured via ELISA (using ELISA MAX™ Deluxe Set Mouth TNF-α, a kit manufactured by BioLegend). In the LPS addition test section, anti-inflammatory action was determined to be higher when the TNF-α production levels were more reduced through the prior addition of the various extracts, and lower the less said levels were reduced.
In general terms: ELISA stands for enzyme-linked immunosorbent assay.

The test system of experiment [2] is rat brain capillary endothelial cells (RBECs, primary cells). As to the kind of experiment: Protein expression of tight-junction-associated molecules (claudin-5 and occludin) in RBECs, western blot. It is filed as cell-based.
Method: First, a 48-well plate was seeded with the RBECs (2×10^5 cells/well·440 μL), and a culture was started in a CO2 incubator (37° C., CO2 level 5%). Next, after 72 hours, the medium in each well was replaced with an evaluation medium prepared by adding the various extracts, and, 24 hours and 72 hours after that, RNA and protein were recovered from the cultured cells a NucleoSpin RNA/Protein kit (Takara Bio) according to the protocol of the kit. The extracted protein was evaluated via western blot, and DNA obtained by reverse transcription of the extracted RNA was evaluated via real-time PCR.
(§1) First, a 48-well plate was seeded with the RBECs (2×10^5 cells/well·440 μL), and a culture was started in a CO2 incubator (37° C., CO2 level 5%). […] The extracted protein was evaluated via western blot, and DNA obtained by reverse transcription of the extracted RNA was evaluated via real-time PCR (real-time PCR data not shown here).
as §1
The subject of experiment [3] is microglia in the hippocampus. To be noted: Liang et al., International Journal of Neuroscience, 2022; cited from earlier work.

SMILES strings stand for the structures.

For the compound `Nc1ncnc2c1ncn2[C@@H]1O[C@H](COP(=O)(O)O)[C@@H](O)[C@H]1O` [AMP, adenosine 5′-monophosphate], in experiment [1], the anti-inflammatory activity entry is given as “anti-inflammatory activity was observed”.

On to `Cn1cncc1C[C@H](NC(=O)CCN)C(=O)O` [anserine], for which the “anti-inflammatory action compared to katsuobushi extract” value in experiment [1] was “none of these substances in isolation showed anti-inflammatory action comparable to katsuobushi extract”.

For the compound `C[N+](C)(C)CC(=O)O` [betaine], in experiment [1], the “anti-inflammatory action compared to katsuobushi extract” value is on record as “none of these substances in isolation showed anti-inflammatory action comparable to katsuobushi extract”.

With `NCCC(=O)N[C@@H](Cc1cnc[nH]1)C(=O)O` [carnosine], in experiment [1], the “anti-inflammatory action compared to katsuobushi extract” value was “none of these substances in isolation showed anti-inflammatory action comparable to katsuobushi extract”.

Consider `CN(CC(=O)O)C(=N)N` [creatine], for which the “anti-inflammatory action compared to katsuobushi extract” value in experiment [1] was “none of these substances in isolation showed anti-inflammatory action comparable to katsuobushi extract”.

For `O=C(O)CO` [glycolic acid], in experiment [1], the anti-inflammatory activity result is reported as “showed anti-inflammatory activity”.

Regarding `N[C@@H](Cc1c[nH]cn1)C(=O)O` [histidine], in experiment [1], the “anti-inflammatory action compared to katsuobushi extract” value is on record as “none of these substances in isolation showed anti-inflammatory action comparable to katsuobushi extract”. In experiment [2] (added concentration 0.836 mg/ml, after 24 hours, compared to serum-free medium), the claudin-5 protein expression result is on record as “elevated”. The “expression of tight-junction-associated molecules (claudin-5 and occludin) at the genetic level and the protein level” value in experiment [2] (rat cerebrovascular endothelial cells) is listed as “elevated expression”.

In the case of `O=c1[nH]cnc2nc[nH]c12` [hypoxanthine], in experiment [1], the anti-inflammatory activity entry is “anti-inflammatory activity was observed”.

Take `CC(O)C(=O)O` (centres unmarked) [lactic acid]: the “anti-inflammatory activity (literature)” value in experiment [3] was “already been reported to have anti-inflammatory activity”. For the same compound, in experiment [1], the anti-inflammatory activity result is “showed anti-inflammatory activity”.

Turning to `O=C[C@H](O)[C@H](O)[C@H](O)COP(=O)(O)O` [ribose 5-phosphate], the anti-inflammatory activity result in experiment [1] is “anti-inflammatory activity was observed”.

With `O=C(O)CCC(=O)O` [succinic acid], the anti-inflammatory activity entry in experiment [1] is “anti-inflammatory activity was observed”.
